Test results as given in patent publication US20250295607A1, “OPHTHALMIC COMPOSITIONS FOR TREATMENT OF OCULAR SURFACE DAMAGE AND SYMPTOMS OF DRYNESS” (Novaliq GmbH, priority 2018, published 2025).

How the values were obtained:
[1] = tested on: subjects with Dry Eye Disease; assay: Phase 2 multi-center, randomized, double-masked, saline-controlled clinical study (NCT03333057), signs and symptoms overall; format: in vivo, human
Protocol: A Phase 2, Multi-Center, Randomized, Double-Masked, Saline-Controlled Study to Evaluate the Effect of 1-Perfluorohexyloctane (NOV03) at two different dosing regimens on signs and symptoms of Dry Eye Disease (DED) was conducted. The study was performed at 11 investigational cites in the United States. The study was reviewed and approved by the respective ethics committees and registered at www.clinicaltrials.gov (NCT03333057).
The primary objective for this study is to evaluate the efficacy, safety, and tolerability of an ophthalmic composition essentially consisting of 1-perfluorohexyloctane (NOV03) at two different dosing regimens (QID, BID) compared to saline solution in subjects with Dry Eye Disease. The secondary objectives are to compare the effect of an ophthalmic composition essentially consisting of 1-perfluorohexyloctane (NOV03) and saline solution at two different dosing regimens on signs and symptoms of Dry Eye Disease and to evaluate the pharmacokinetics after 57 days dosing.
Subjects must: • a. Be at least 18 years of age. • b. Provide written informed consent. • c. Have a subject reported history of Dry Eye Disease in both eyes for at least 6 months prior to Visit 0. • d. […] Have Meibomian Gland Dysfunction (MGD) defined as MGD score≥3 (secretion of 5 central glands on lower eyelid will be evaluated, each will be scored from 0-3; 0=normal, 1=thick/yellow, whitish, particulate 2=paste; 3=none/occluded; total score will range from 0-15) at Visit 0 and Visit 1. • h. […]
Screening (Visit 0); Within 14 days before Visit 1 Subjects will be required to sign an Informed Consent before completing any study related procedure. At the screening visit, vital signs will be assessed and the subject will give blood for safety laboratory tests. […]
Baseline Visit Day 1 (Visit 1): On Day 1 (Visit 1), eligible subjects will be evaluated for baseline signs and symptoms of dry eye disease. […]
Visits 2-4; Subjects will return to the clinic on Day 15±1 (Visit 2), 29±2 (Visit 3), and 57±2 (Visit 4) to be evaluated for signs and symptoms of dry eye disease. […]

[2] = tested on: cornea of subjects with Dry Eye Disease; assay: Corneal fluorescein staining, NEI grading scale (ocular surface damage); format: in vivo, human
Source text: A Wratten #12 yellow filter will be used to enhance the ability to grade fluorescein staining. The staining will be graded with the NEI (National Eye Institute) Grading
Scale. Only the staining of the cornea will be graded. Digital images of fluorescein staining may be taken for digital analysis.
Based on the NEI/Industry Workshop Scale, the grade of the ocular surface damage for each eye is scored for each of the five regions of the cornea based on measuring fluorescein uptake.
Grade 0 will be specified when no fluorescein staining is present. Grades 1, 2 and 3 define an increasing density and degree of observed fluorescein staining, The maximum total score for each eye is 15.

[3] = tested on: subjects with Dry Eye Disease; assay: Visual Analog Scale (VAS) Eye Dryness Score questionnaire; format: in vivo, human; conditions: QID
Protocol: An Eye Dryness Score was determined based on a 10-item questionnaire provided to subjects, where subjects were asked to rate their ocular symptoms (both eyes simultaneously) due to ocular dryness by placing a vertical mark on a horizontal line scale to indicate the level of discomfort (0% corresponds to “no dryness” and 100% corresponds to “maximal dryness”). Subjects are asked about the severity of dry eye symptoms, namely the symptoms of dryness representing the first 8 questions of the VAS questionnaire corresponding to: dryness (corresponding to the first question in the VAS questionnaire, and also referred to in the text and in the graphs as “severity of dryness”; with the terms “dryness” and “severity of dryness” being used interchangeably herein as a dry eye symptom designation, sticky feeling, burning/stinging, foreign body sensation, itching, blurred vision, sensitivity to light, and pain.
Subjects are also asked about their awareness of their dry eye symptoms and frequency of their dry eye symptoms, namely questions 9-10 of the VAS questionnaire. The rating for these questions is indicated by the subject by placing a vertical mark on a horizontal line scale to indicate the percentage of time of awareness or frequency, with 0% corresponding to ‘never’ and 100% corresponding to ‘all of the time’.

[4] = tested on: subjects with Dry Eye Disease; assay: Ocular Surface Disease Index (OSDI) questionnaire; format: in vivo, human
Source text: The Ocular Surface Disease Index (OSDI©)) is perhaps the most frequently used survey instrument for the assessment of ocular surface disease severity in dry eye research. The OSDIC was created by the Outcomes Research Group at Allergan Inc in order to quickly assess the symptoms of ocular irritation in dry eye disease and how they affect functioning related to vision. This 12-item questionnaire assesses dry eye symptoms and the effects it has on vision-related function in the past week of the patient's life. The questionnaire has 3 subscales: ocular symptoms, vision-related function, and environmental triggers. Patients rate their responses on a 0 to 4 scale with 0 corresponding to “none of the time” and 4 corresponding to “all of the time.” A final score is calculated which ranges from 0 to 100.
The questions assess the following: dry eye symptoms experienced by the patient within past week: sensitivity to light, gritty sensation, pain or sore eyes, blurriness, and poor vision; vision-related function, in terms of problems in the past week with regards to: reading, driving at night, working on a computer or bank machine, watching television; and in terms of environmental factors or triggers i.e. discomfort experienced in the past week during: windy conditions, places with low humidity, and areas with air condition.
Subtotals are obtained for all the questions, as well as the total number of questions answered. The OSDI index is assessed based on a scale of 0 to 100, with higher scores representing a greater disability. The OSDI index is calculated from the sum of the scores multiplied by a factor of 25, over the total number of questions answered. Higher scores represent a greater degree/severity and impact of dry eye disease.

[5] = Density; format: physicochemical
[6] = QID, after 2 weeks of treatment
[7] = QID, significant also at 4 weeks, 8 weeks

- density [5]: 1.35 g/mL
- density (d) [5]: 1.35 g/mL
SMILES: CCCCCCCCC(F)(F)C(F)(F)C(F)(F)C(F)(F)C(F)(F)C(F)(F)F [NOV03, 1-perfluorohexyloctane]
- signs and symptoms of dry eye disease ([1]; 4 times daily, single drop of 10-12 μl, highly symptomatic DED population with significant MGD involvement): relevant and statistically significant improvements
- benefit in patient population by baseline characteristics ([1]; QID, OSDI between 38 and 72, TBUT between 2.1 and 3.9 seconds or MGD score between 4.0 and 11.2, and/or total corneal fluorescein staining between 4.8 and 9.2): beneficial
- benefit in patients meeting one or more baseline criteria ([1]; QID, TBUT equal or lower than 3, OSDI higher than 57, total corneal fluorescein staining between 5 and 9, MGD score equal or higher than 7, Schirmer I Test greater or equal than 10 mm): especially benefitted
- reduction of ocular surface damage, superior corneal region ([2]; QID vs saline): did not show such clear improvement
- reduction of ocular surface damage, central corneal region ([2]; QID vs saline, 2, 4, 8 weeks): clear improvements
- reduction of ocular surface damage, inferior corneal region ([2]; QID vs saline, 2, 4, 8 weeks): clear improvements
- reduction of ocular surface damage, nasal corneal region ([2]; QID vs saline, 2, 4, 8 weeks): clear improvements
- reduction of ocular surface damage, temporal corneal region ([2]; QID vs saline, 2, 4, 8 weeks): clear improvements
- patients with improvement of ≥1 grade in central corneal staining [2, 6]: 39%
- patients with improvement of ≥3 grades in total corneal staining [2, 6]: 32%
- patients with improvement of ≥1 grade in central corneal staining ([2]; QID, after 8 weeks): 50%
- patients with improvement of ≥3 grades in total corneal staining ([2]; QID, after 8 weeks): 42%
- total corneal fluorescein staining (primary efficacy endpoint), reduction of ocular surface damage of the total corneal region ([2]; QID, at 8 weeks, vs saline): met its prespecified primary efficacy endpoint
- start of treatment effect relating to the signs [2, 7]: 2 weeks
- VAS pain ([3]; at the 4 week timepoint, higher variability): did not improve
- VAS awareness of dryness ([3]; over the placebo group): highly statistical significant improvement
- VAS blurred vision ([3]; over the placebo group): highly statistical significant improvement
- VAS burning/stinging ([3]; over the placebo group): highly statistical significant improvement
- VAS foreign body sensation ([3]; over the placebo group): highly statistical significant improvement
- VAS frequency of dryness ([3]; over the placebo group): highly statistical significant improvement
- VAS itching ([3]; over the placebo group): highly statistical significant improvement
- VAS sensitivity to light ([3]; over the placebo group): highly statistical significant improvement
- VAS severity of dryness ([3]; over the placebo group): highly statistical significant improvement
- VAS sticky feeling ([3]; over the placebo group): highly statistical significant improvement
- VAS severity of dryness in patients with Schirmer I Test of greater or equal than 10 mm ([3]; subpopulation with normal tear production, DED associated with MGD, 8 weeks): significant change from baseline
- start of treatment effect relating to the VAS symptoms ([3]; significant also at 4 weeks, 8 weeks): 2 weeks
- OSDI blurred vision ([4]; QID vs saline): clear improvements
- OSDI eyes feeling gritty ([4]; QID vs saline): clear improvements
- OSDI painful or sore eyes ([4]; QID vs saline): clear improvements
- OSDI poor vision ([4]; QID vs saline): clear improvements
- OSDI problems with driving at night ([4]; QID vs saline): clear improvements
- OSDI problems with watching TV ([4]; QID vs saline): clear improvements
- OSDI reading problems ([4]; QID vs saline): clear improvements
- OSDI sensitivity to light ([4]; QID vs saline): clear improvements
- OSDI uncomfortable in areas that are air conditions ([4]; QID vs saline): clear improvements
- OSDI uncomfortable in areas with low humidity ([4]; QID vs saline): clear improvements
- OSDI uncomfortable under windy conditions ([4]; QID vs saline): clear improvements
- OSDI problems with working with a computer or bank machine (ATM) ([4]; QID, at the 4 and 8-week timepoint, higher data variability): did not improve
- total OSDI score ([4]; QID, over the placebo group): highly statistical significant improvement
- start of treatment effect relating to the OSDI symptoms [4, 7]: 2 weeks
